For experiment [1], the system named is TBK1 + IKKε (phospho-IRF3 @ Ser 386, MDA-MB-468 cells). Briefly: TBK1 + IKKε cell assay: dose response inhibition of phospho-IRF3 @ Ser 386 in MDA-MB-468 cells. It counts as cell-based. Conditions: Homo sapiens, poly(I:C) stimulation, nuclear phospho-IRF3, read-out: TBK1 + IKKε cell assay IC50.
The target in experiment [2] is TANK binding kinase (TBK1) (Homo sapiens (Human), UniProt Q9UHD2). Put plainly: TBK1 enzyme assay (384-well flashplate kinase assay). As to conditions: 0.6 nM TBK1, 10 μM ATP, 30° C., 120 min. It counts as biochemical.
Description: Test for the Inhibition of TBK1
The kinase assay is performed as 384-well flashplate assay (for example for Topcount measurement).
0.6 nM TANK binding kinase (TBK1), 800 nM biotinylated MELK-derived peptide (Biotin-Ah-Ah-[sequence]) and 10 μM ATP (spiked with 0.25 μCi of ^33P-ATP/well) are incubated at 30° C. for 120 min in a total volume of 50 μl (10 mM MOPS, 10 mM Mg acetate, 0.1 mM EGTA, 1 mM DTT, 0.02% of Brij35, 0.1% of BSA, pH 7.5) with or without test compound. The reaction is stopped with 25 μl of 200 mM EDTA. After 30 min at room temperature, the liquid is removed, and each well is washed three times with 100 μl of 0.9% sodium chloride solution. Non-specific reaction is measured in the presence of 100 nM staurosporine. The radioactivity is measured in a Topcount (PerkinElmer).
The next experiment has as its target IKKε (Homo sapiens (Human), UniProt Q14164). Briefly: IKKε kinase assay (384-well flashplate assay). It counts as biochemical. As to conditions: 1 nM IKKε, 10 μM ATP, 30° C., 2 hours; read-out: IKKε enzyme assay IC50. Summed up: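 Recombinant IKKε (1 nM) phosphorylates biotinylated IκBα(19-42) peptide (800 nM) with 10 μM ATP spiked with ^33P-ATP, 2 h at 30° C in MOPS buffer pH 7.5. Stopped with EDTA, captured on flashplate, radioactivity counted; nonspecific signal defined with 3 μM BX-795; IC50 derived.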

Drawing on patent US8969335B2, “Benzonitrile derivatives as kinase inhibitors” (MERCK PATENT GmbH, priority 2011, dated 2015), this text covers IC50 for eight molecules.

The structures appear in SMILES notation.

TANK binding kinase (TBK1), sequence (Q9UHD2 whole entry): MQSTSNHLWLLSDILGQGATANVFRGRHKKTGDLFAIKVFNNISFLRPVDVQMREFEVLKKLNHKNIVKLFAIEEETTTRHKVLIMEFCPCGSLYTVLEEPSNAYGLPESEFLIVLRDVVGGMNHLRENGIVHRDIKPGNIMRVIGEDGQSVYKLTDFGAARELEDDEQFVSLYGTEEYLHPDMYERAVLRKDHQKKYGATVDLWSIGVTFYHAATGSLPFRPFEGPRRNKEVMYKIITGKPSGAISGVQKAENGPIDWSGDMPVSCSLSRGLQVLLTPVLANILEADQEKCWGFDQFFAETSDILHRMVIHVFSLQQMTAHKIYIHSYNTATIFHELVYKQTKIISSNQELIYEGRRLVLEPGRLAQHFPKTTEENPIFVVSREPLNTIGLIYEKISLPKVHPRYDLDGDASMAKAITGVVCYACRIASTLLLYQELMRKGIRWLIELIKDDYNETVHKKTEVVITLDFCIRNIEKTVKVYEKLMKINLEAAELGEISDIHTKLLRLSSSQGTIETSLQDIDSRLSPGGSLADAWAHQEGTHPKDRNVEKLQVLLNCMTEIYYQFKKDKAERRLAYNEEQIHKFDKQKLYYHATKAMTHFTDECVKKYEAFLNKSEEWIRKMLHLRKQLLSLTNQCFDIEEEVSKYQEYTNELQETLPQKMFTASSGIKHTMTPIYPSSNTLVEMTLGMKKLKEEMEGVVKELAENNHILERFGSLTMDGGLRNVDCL
IKKε, sequence (Q14164 whole entry): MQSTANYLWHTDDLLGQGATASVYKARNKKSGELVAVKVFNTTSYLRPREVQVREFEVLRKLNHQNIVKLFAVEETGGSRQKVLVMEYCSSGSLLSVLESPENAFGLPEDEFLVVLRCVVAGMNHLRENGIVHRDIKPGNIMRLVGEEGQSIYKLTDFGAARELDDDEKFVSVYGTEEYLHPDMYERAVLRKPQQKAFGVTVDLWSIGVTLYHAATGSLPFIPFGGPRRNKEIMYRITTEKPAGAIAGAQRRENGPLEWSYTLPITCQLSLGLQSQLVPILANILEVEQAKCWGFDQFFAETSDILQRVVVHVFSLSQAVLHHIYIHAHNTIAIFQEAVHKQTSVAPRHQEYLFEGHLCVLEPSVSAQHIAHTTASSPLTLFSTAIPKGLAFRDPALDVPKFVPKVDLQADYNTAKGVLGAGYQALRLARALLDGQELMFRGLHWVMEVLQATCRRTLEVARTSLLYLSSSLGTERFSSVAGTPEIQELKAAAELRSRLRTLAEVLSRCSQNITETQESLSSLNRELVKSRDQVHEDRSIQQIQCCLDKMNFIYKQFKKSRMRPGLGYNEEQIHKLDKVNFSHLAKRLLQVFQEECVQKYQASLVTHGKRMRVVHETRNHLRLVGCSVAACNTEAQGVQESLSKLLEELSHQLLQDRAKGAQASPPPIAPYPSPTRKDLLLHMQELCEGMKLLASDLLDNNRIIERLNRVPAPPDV

As a reminder, the IC50 is the point on the concentration scale where inhibition reaches its midpoint. As for `N#Cc1cc(-c2ccnc(Nc3cnn(C4CCNC4)c3)c2)ccc1OC1CCOCC1` (stereo not drawn) [Compound A28, 5-[2-(1-Pyrrolidin-3-yl-1H-pyrazol-4-ylamino)pyridin-4-yl]-2-(tetrahydropyran-4-yloxy)benzonitrile], the half-maximal inhibitory concentration (IC50) in experiment [1] came out at 23000 nM; in experiment [2], 280 nM; at IKKε it was 74 nM.
Consider `N#Cc1cc(-c2ccnc(Nc3cc(C4CC4)n[nH]3)c2)ccc1OC1CCOCC1` [Compound A12, 5-[2-(5-Cyclopropyl-2H-pyrazol-3-ylamino)pyridin-4-yl]-2-(tetrahydropyran-4-yloxy)benzonitrile], for which the IC50 in experiment [1] was found to be 1300 nM; in experiment [2] it was 30 nM; on IKKε it was 25 nM.
Taken in the same sequence, the figures for `CN1CCC(n2cc(Nc3cc(-c4ccc(OC5CCOCC5)c(C#N)c4)ccn3)cn2)CC1` [Compound A2, 5-{2-[1-(1-Methylpiperidin-4-yl)-1H-pyrazol-4-yl-amino]pyridin-4-yl}-2-(tetrahydropyran-4-yloxy)benzonitrile] were 960 nM, 83 nM and 20 nM.
On the same counts, the results for `COCCn1cc(Nc2nccc(-c3ccc(OC4CCOCC4)c(C#N)c3)n2)cn1` [Compound A35, 5-{2-[1-(2-Methoxyethyl)-1H-pyrazol-4-ylamino]pyrimidin-4-yl}-2-(tetrahydropyran-4-yloxy)benzonitrile] are 670 nM, 6 nM and 18 nM.
In the case of `N#Cc1cc(-c2ccnc(Nc3ccc(N4CCOCC4)cn3)c2)ccc1OC1CCOCC1` [Compound A7, 5-[2-(5-Morpholin-4-ylpyridin-2-ylamino)pyridin-4-yl]-2-(tetrahydropyran-4-yloxy)benzonitrile], the IC50 turned out to be 350 nM in experiment [1], 8 nM in experiment [2] and 15 nM at IKKε.
On the same counts, the results for `N#Cc1cc(-c2ccnc(Nc3cnn(CCO)c3)n2)ccc1OCC1CCC1` [Compound A94, 2-cyclobutylmethoxy-5-{2-[1-(2-hydroxyethyl)-1H-pyrazol-4-ylamino]pyrimidin-4-yl}benzonitrile] are 980 nM, 14 nM and 18 nM.
Taken in the same sequence, the figures for `N#Cc1cc(-c2ccnc(Nc3cnn(C[C@H]4C[C@@H]4CO)c3)n2)ccc1OCC1CCC1` [Compound A95, 2-cyclobutylmethoxy-5-{2-[1-((1S,2S)-2-hydroxymethylcyclopropylmethyl)-1H-pyrazol-4-ylamino]pyrimidin-4-yl}benzonitrile] were 810 nM, 10 nM and 8 nM.
Consider `N#Cc1cc(-c2ccnc(Nc3cnn(CC4CC4C#N)c3)c2)ccc1OC1CCOCC1` (stereo not drawn) [Compound A24, 5-{2-[1-(2-Cyanocyclopropylmethyl)-1H-pyrazol-4-ylamino]pyridin-4-yl}-2-(tetrahydropyran-4-yloxy)benzonitrile], for which the 50% inhibitory concentration (IC50) is 4800 nM in experiment [1], 110 nM in experiment [2] and 89 nM on IKKε.
